Results published in publication PMC8037182, “Solvothermal Synthesis of Multiple Dihydropyrimidinones at a Time as Inhibitors of Eg5” (Molecules, 2021).
pIC50: −log10 of the molar value.

What was measured:
[1] = test system: T24 cell line; test: Cytotoxicity MTS assay, T24 cell line; format: cell-based; settings: for OD490 Mean / OD490 Well 1 / OD490 Well 2 / OD490 Well 3: T24 cell line
Procedure: (§1) The positive compounds (IC50 < 100 μM) obtained from the primary Eg5 motor protein ATPase assay were tested for antiproliferative activity in vitro against Caco-2 cell line, Hela cell line, L929 cell line and T24 cell line by performing MTS assay. Cells were introduced into 96-well plates at a density of 1000 cells per well. After 24 h incubation, the cells were exposed with compounds at final concentrations ranging from 0.5 to 100 µM for 24 h. DMSO was used at a final concentration of 0.025% as blank control, monastrol was used as the positive control. Then 20 µL (CellTiter 96® AQueous One Solution Promega, Madison, WI, USA) reagent was added in each well. After 2 h at 37 °C in a 80% humidified, 5% CO2 atmosphere, the absorbance at 490 nm was recorded using a microplate reader (BIO-RAD iMark^TM). The results were obtained in three independent duplicate experiments. The primary data were shown in Supplementary Materials Tables S4–S7. The IC50 values for these compounds were calculated from a non-linear regression graph plotted between the percentage of cell viability and concentration with SPSS17.0 software.

[2] = test system: Hela cell line; test: Cytotoxicity MTS assay, Hela cell line; format: cell-based; settings: for OD490 value, Mean / OD490 value, Well 1 / OD490 value, Well 2 / OD490 value, Well 3: Hela cell line, MTS
Procedure: as §1

Compound: CCOC(=O)c1c(C2NC(=O)NC(C)=C2C(=O)Nc2ccccc2OC)[nH]c(C(=O)OC)c1C (centres unmarked) [D1]
- pIC50 ([1]; MTS assay, 24 h exposure): 3.88
- OD490 Mean ([1]; 0.5μM, first assay): 1.7953
- OD490 Well 1 ([1]; 0.5μM, first assay): 1.9580
- OD490 Well 2 ([1]; 0.5μM, first assay): 1.8859
- OD490 Well 3 ([1]; 0.5μM, first assay): 1.5421
- OD490 Mean ([1]; 0.5μM, second assay): 1.6618
- OD490 Well 1 ([1]; 0.5μM, second assay): 1.6321
- OD490 Well 2 ([1]; 0.5μM, second assay): 1.6547
- OD490 Well 3 ([1]; 0.5μM, second assay): 1.6987
- OD490 Mean ([1]; 0.5μM, third assay): 1.6883
- OD490 Well 1 ([1]; 0.5μM, third assay): 1.6325
- OD490 Well 2 ([1]; 0.5μM, third assay): 1.6625
- OD490 Well 3 ([1]; 0.5μM, third assay): 1.7698
- OD490 Mean ([1]; 1μM, first assay): 1.8122
- OD490 Well 1 ([1]; 1μM, first assay): 1.9288
- OD490 Well 2 ([1]; 1μM, first assay): 1.8729
- OD490 Well 3 ([1]; 1μM, first assay): 1.6348
- OD490 Mean ([1]; 1μM, second assay): 1.5761
- OD490 Well 1 ([1]; 1μM, second assay): 1.5621
- OD490 Well 2 ([1]; 1μM, second assay): 1.7412
- OD490 Well 3 ([1]; 1μM, second assay): 1.4251
- OD490 Mean ([1]; 1μM, third assay): 1.7342
- OD490 Well 1 ([1]; 1μM, third assay): 1.7236
- OD490 Well 2 ([1]; 1μM, third assay): 1.7425
- OD490 Well 3 ([1]; 1μM, third assay): 1.7365
- OD490 Mean ([1]; 10μM, first assay): 1.8792
- OD490 Well 1 ([1]; 10μM, first assay): 2.1723
- OD490 Well 2 ([1]; 10μM, first assay): 1.7790
- OD490 Well 3 ([1]; 10μM, first assay): 1.6864
- OD490 Mean ([1]; 10μM, second assay): 1.7434
- OD490 Well 1 ([1]; 10μM, second assay): 1.9658
- OD490 Well 2 ([1]; 10μM, second assay): 1.6625
- OD490 Well 3 ([1]; 10μM, second assay): 1.6020
- OD490 Mean ([1]; 10μM, third assay): 1.7548
- OD490 Well 1 ([1]; 10μM, third assay): 1.7768
- OD490 Well 2 ([1]; 10μM, third assay): 1.8524
- OD490 Well 3 ([1]; 10μM, third assay): 1.6352
- OD490 Mean ([1]; 25μM, first assay): 1.7549
- OD490 Well 1 ([1]; 25μM, first assay): 1.8700
- OD490 Well 2 ([1]; 25μM, first assay): 1.7393
- OD490 Well 3 ([1]; 25μM, first assay): 1.6554
- OD490 Mean ([1]; 25μM, second assay): 1.7221
- OD490 Well 1 ([1]; 25μM, second assay): 1.6685
- OD490 Well 2 ([1]; 25μM, second assay): 1.7236
- OD490 Well 3 ([1]; 25μM, second assay): 1.7741
- OD490 Mean ([1]; 25μM, third assay): 1.8268
- OD490 Well 1 ([1]; 25μM, third assay): 1.7747
- OD490 Well 2 ([1]; 25μM, third assay): 1.7535
- OD490 Well 3 ([1]; 25μM, third assay): 1.9522
- OD490 Mean ([1]; 50μM, first assay): 1.5187
- OD490 Well 1 ([1]; 50μM, first assay): 1.4408
- OD490 Well 2 ([1]; 50μM, first assay): 1.5156
- OD490 Well 3 ([1]; 50μM, first assay): 1.5997
- OD490 Mean ([1]; 50μM, second assay): 1.5158
- OD490 Well 1 ([1]; 50μM, second assay): 1.5365
- OD490 Well 2 ([1]; 50μM, second assay): 1.5214
- OD490 Well 3 ([1]; 50μM, second assay): 1.4896
- OD490 Mean ([1]; 50μM, third assay): 1.4458
- OD490 Well 1 ([1]; 50μM, third assay): 1.4214
- OD490 Well 2 ([1]; 50μM, third assay): 1.4823
- OD490 Well 3 ([1]; 50μM, third assay): 1.4336
- OD490 Mean ([1]; 100μM, first assay): 1.4345
- OD490 Well 1 ([1]; 100μM, first assay): 1.4729
- OD490 Well 2 ([1]; 100μM, first assay): 1.3331
- OD490 Well 3 ([1]; 100μM, first assay): 1.4975
- OD490 Mean ([1]; 100μM, second assay): 1.3859
- OD490 Well 1 ([1]; 100μM, second assay): 1.3654
- OD490 Well 2 ([1]; 100μM, second assay): 1.5687
- OD490 Well 3 ([1]; 100μM, second assay): 1.2235
- OD490 Mean ([1]; 100μM, third assay): 1.3345
- OD490 Well 1 ([1]; 100μM, third assay): 1.3553
- OD490 Well 2 ([1]; 100μM, third assay): 1.4058
- OD490 Well 3 ([1]; 100μM, third assay): 1.2423
- OD490 value, Mean ([2]; 0.5μM, first assay): 2.5955
- OD490 value, Well 1 ([2]; 0.5μM, first assay): 2.6286
- OD490 value, Well 2 ([2]; 0.5μM, first assay): 2.5425
- OD490 value, Well 3 ([2]; 0.5μM, first assay): 2.6155
- OD490 value, Mean ([2]; 0.5μM, second assay): 2.5919
- OD490 value, Well 1 ([2]; 0.5μM, second assay): 2.6314
- OD490 value, Well 2 ([2]; 0.5μM, second assay): 2.6010
- OD490 value, Well 3 ([2]; 0.5μM, second assay): 2.5433
- OD490 value, Mean ([2]; 0.5μM, third assay): 2.5096
- OD490 value, Well 1 ([2]; 0.5μM, third assay): 2.7036
- OD490 value, Well 2 ([2]; 0.5μM, third assay): 2.5565
- OD490 value, Well 3 ([2]; 0.5μM, third assay): 2.2688
- OD490 value, Mean ([2]; 1μM, first assay): 2.6416
- OD490 value, Well 1 ([2]; 1μM, first assay): 2.6885
- OD490 value, Well 2 ([2]; 1μM, first assay): 2.5442
- OD490 value, Well 3 ([2]; 1μM, first assay): 2.6922
- OD490 value, Mean ([2]; 1μM, second assay): 2.5793
- OD490 value, Well 1 ([2]; 1μM, second assay): 2.5367
- OD490 value, Well 2 ([2]; 1μM, second assay): 2.4698
- OD490 value, Well 3 ([2]; 1μM, second assay): 2.7314
- OD490 value, Mean ([2]; 1μM, third assay): 2.7183
- OD490 value, Well 1 ([2]; 1μM, third assay): 2.6969
- OD490 value, Well 2 ([2]; 1μM, third assay): 2.7546
- OD490 value, Well 3 ([2]; 1μM, third assay): 2.7033
- OD490 value, Mean ([2]; 10μM, first assay): 2.4106
- OD490 value, Well 1 ([2]; 10μM, first assay): 2.3442
- OD490 value, Well 2 ([2]; 10μM, first assay): 2.5603
- OD490 value, Well 3 ([2]; 10μM, first assay): 2.3272
- OD490 value, Mean ([2]; 10μM, second assay): 2.3296
- OD490 value, Well 1 ([2]; 10μM, second assay): 2.6351
- OD490 value, Well 2 ([2]; 10μM, second assay): 2.1367
- OD490 value, Well 3 ([2]; 10μM, second assay): 2.2169
- OD490 value, Mean ([2]; 10μM, third assay): 2.4826
- OD490 value, Well 1 ([2]; 10μM, third assay): 2.5635
- OD490 value, Well 2 ([2]; 10μM, third assay): 2.3145
- OD490 value, Well 3 ([2]; 10μM, third assay): 2.5698
- OD490 value, Mean ([2]; 25μM, first assay): 2.1398
- OD490 value, Well 1 ([2]; 25μM, first assay): 2.1204
- OD490 value, Well 2 ([2]; 25μM, first assay): 2.2546
- OD490 value, Well 3 ([2]; 25μM, first assay): 2.0445
- OD490 value, Mean ([2]; 25μM, second assay): 2.1914
- OD490 value, Well 1 ([2]; 25μM, second assay): 2.2361
- OD490 value, Well 2 ([2]; 25μM, second assay): 2.1235
- OD490 value, Well 3 ([2]; 25μM, second assay): 2.2145
- OD490 value, Mean ([2]; 25μM, third assay): 2.1507
- OD490 value, Well 1 ([2]; 25μM, third assay): 2.2233
- OD490 value, Well 2 ([2]; 25μM, third assay): 2.2142
- OD490 value, Well 3 ([2]; 25μM, third assay): 2.0145
- OD490 value, Mean ([2]; 50μM, first assay): 2.0448
- OD490 value, Well 1 ([2]; 50μM, first assay): 2.0719
- OD490 value, Well 2 ([2]; 50μM, first assay): 2.1034
- OD490 value, Well 3 ([2]; 50μM, first assay): 1.9590
- OD490 value, Mean ([2]; 50μM, second assay): 2.0574
- OD490 value, Well 1 ([2]; 50μM, second assay): 1.9987
- OD490 value, Well 2 ([2]; 50μM, second assay): 2.1136
- OD490 value, Well 3 ([2]; 50μM, second assay): 2.0599
- OD490 value, Mean ([2]; 50μM, third assay): 2.0424
- OD490 value, Well 1 ([2]; 50μM, third assay): 2.0136
- OD490 value, Well 2 ([2]; 50μM, third assay): 1.9658
- OD490 value, Well 3 ([2]; 50μM, third assay): 2.1478
- OD490 value, Mean ([2]; 100μM, first assay): 1.9714
- OD490 value, Well 1 ([2]; 100μM, first assay): 1.9106
- OD490 value, Well 2 ([2]; 100μM, first assay): 1.9576
- OD490 value, Well 3 ([2]; 100μM, first assay): 2.0459
- OD490 value, Mean ([2]; 100μM, second assay): 1.9690
- OD490 value, Well 1 ([2]; 100μM, second assay): 2.0360
- OD490 value, Well 2 ([2]; 100μM, second assay): 1.8490
- OD490 value, Well 3 ([2]; 100μM, second assay): 2.0220
- OD490 value, Mean ([2]; 100μM, third assay): 1.9075
- OD490 value, Well 1 ([2]; 100μM, third assay): 2.0141
- OD490 value, Well 2 ([2]; 100μM, third assay): 1.8426
- OD490 value, Well 3 ([2]; 100μM, third assay): 1.8657
- pIC50 ([2]; MTS assay, 24 h exposure): 3.89
